Experimental data as given in patent US8853230B2, “Inhibitors of JAK” (Portola Pharmaceuticals, Inc., priority 2009, dated 2014).

Tests used:
Assay type in all cases: biochemical
JAK1 = target: T1, JAK1 (Homo sapiens, UniProt P23458); assay: Z'-LYTE kinase assay, JAK1 tyrosine phosphorylation activity; details: read-out: JAK 1 IC50
T1 construct: 5 μl of catalytic domain recombinant Kinase enzyme+Tyr peptide substrate (Invitrogen, Calif.); purchased Invitrogen
How it was run: (§1)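 Z'-LYTE format using the Tyr6 peptide with recombinant catalytic-domain kinase; 1 h kinase reaction and 1 h development, both at room temperature. IC50s derived from ratiometric FRET signal.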

JAK2 = target: T2, JAK2 (Homo sapiens, UniProt O60674); assay: Z'-LYTE kinase assay, JAK2 tyrosine phosphorylation activity
T2 construct: 5 μl of catalytic domain recombinant Kinase enzyme+Tyr peptide substrate (Invitrogen, Calif.); purchased Invitrogen
How it was run: as §1

JAK3 = target: T3, JAK3 (Homo sapiens, UniProt P52333); assay: Z'-LYTE kinase assay, JAK3 tyrosine phosphorylation activity
T3 construct: 5 μl of catalytic domain recombinant Kinase enzyme+Tyr peptide substrate (Invitrogen, Calif.); purchased Invitrogen
How it was run: as §1

TYK2 = target: T4, TYK2 (Homo sapiens, UniProt P29597); assay: Z'-LYTE kinase assay, TYK2 tyrosine phosphorylation activity
T4 construct: 5 μl of catalytic domain recombinant Kinase enzyme+Tyr peptide substrate (Invitrogen, Calif.); purchased Invitrogen
T4 sequence (P29597 897-1176 limits assumed): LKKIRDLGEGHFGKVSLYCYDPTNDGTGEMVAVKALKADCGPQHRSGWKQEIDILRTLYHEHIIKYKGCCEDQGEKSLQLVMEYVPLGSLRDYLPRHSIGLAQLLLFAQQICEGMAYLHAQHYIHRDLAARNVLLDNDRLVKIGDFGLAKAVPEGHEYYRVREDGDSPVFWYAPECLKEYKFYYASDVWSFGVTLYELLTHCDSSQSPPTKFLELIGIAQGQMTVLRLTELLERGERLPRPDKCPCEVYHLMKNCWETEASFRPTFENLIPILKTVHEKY
How it was run: as §1

T3 sequence (P52333 822-1111 limits assumed): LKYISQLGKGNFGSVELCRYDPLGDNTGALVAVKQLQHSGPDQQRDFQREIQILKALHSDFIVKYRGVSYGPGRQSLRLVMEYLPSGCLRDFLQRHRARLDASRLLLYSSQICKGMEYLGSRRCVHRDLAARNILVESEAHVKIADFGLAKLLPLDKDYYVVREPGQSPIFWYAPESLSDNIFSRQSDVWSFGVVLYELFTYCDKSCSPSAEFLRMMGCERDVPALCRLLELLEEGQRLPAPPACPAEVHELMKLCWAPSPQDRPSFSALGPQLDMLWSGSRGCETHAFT
T2 sequence (O60674 849-1124 limits assumed): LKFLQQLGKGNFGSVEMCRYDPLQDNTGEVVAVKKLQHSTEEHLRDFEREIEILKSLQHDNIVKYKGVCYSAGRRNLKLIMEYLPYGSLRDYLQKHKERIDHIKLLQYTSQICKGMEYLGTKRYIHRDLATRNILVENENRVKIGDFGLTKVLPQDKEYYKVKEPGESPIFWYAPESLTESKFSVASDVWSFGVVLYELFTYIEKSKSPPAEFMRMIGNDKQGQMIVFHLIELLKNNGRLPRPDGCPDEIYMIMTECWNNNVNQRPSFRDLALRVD
T1 sequence (P23458 875-1153 limits assumed): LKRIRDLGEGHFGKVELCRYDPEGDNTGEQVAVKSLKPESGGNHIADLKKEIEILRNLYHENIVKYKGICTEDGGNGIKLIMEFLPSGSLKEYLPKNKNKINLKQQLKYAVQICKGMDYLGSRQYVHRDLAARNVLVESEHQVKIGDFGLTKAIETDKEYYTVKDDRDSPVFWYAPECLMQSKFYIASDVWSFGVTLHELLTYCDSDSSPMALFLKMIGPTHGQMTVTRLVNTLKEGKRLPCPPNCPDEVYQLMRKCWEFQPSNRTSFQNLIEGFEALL

Row | Structure (SMILES) | IC50 (JAK1) | IC50 (JAK2) | IC50 (JAK3) | IC50 (TYK2)
1 | CC(=O)Nc1cccc(Nc2cc(NCc3ccc4c(c3)OCO4)c(C(N)=O)cn2)c1 [Example 334, 6-(3-acetamidophenylamino)-4-(benzo[d][1,3]dioxol-5-ylmethylamino)nicotinamide] | > 1000 nM | > 1000 nM | 100 to 1000 nM | > 1000 nM
2 | CC(=O)Nc1cc(Cl)cc(Nc2ncc(C(N)=O)c(NCc3ccccc3)n2)c1 [Example 260, 2-(3-acetamido-5-chlorophenylamino)-4-(benzylamino)pyrimidine-5-carboxamide] | > 1000 nM | 100 to 1000 nM | 10 to 100 nM | 10 to 100 nM
3 | CC(=O)Nc1cccc(Nc2ncc(C(N)=O)c(Nc3cccc4nn(C)cc34)n2)c1 [Example 186, 2-(3-acetamidophenylamino)-4-(2-methyl-2H-indazol-4-ylamino)pyrimidine-5-carboxamide] | > 1000 nM | 10 to 100 nM | 10 to 100 nM | > 1000 nM
4 | CC(=O)Nc1cc(Cl)cc(Nc2ncc(C(N)=O)c(NCc3cccc(F)c3)n2)c1 [Example 261, 2-(3-acetamido-5-chlorophenylamino)-4-(3-fluorobenzylamino)pyrimidine-5-carboxamide] | > 1000 nM | 10 to 100 nM | 10 to 100 nM | 10 to 100 nM
5 | COc1ccc(Nc2ncc(C(N)=O)c(NCc3ccccc3)n2)cc1N(C)C(=O)N1CCCC1 [Example 239, 4-(benzylamino)-2-(4-methoxy-3-(N-methylpyrrolidine-1-carboxamido)phenylamino)pyrimidine-5-carboxamide] | 100 to 1000 nM | 10 to 100 nM | 10 to 100 nM | 10 to 100 nM
6 | NC(=O)c1cnc(Nc2ccc(N3CCCC3)c(NC(=O)N3CCCC3)c2)nc1NCc1ccccc1 [Example 159, 4-(benzylamino)-2-(4-(pyrrolidin-1-yl)-3-(pyrrolidine-1-carboxamido)phenylamino)pyrimidine-5-carboxamide] | 100 to 1000 nM | 10 to 100 nM | 1 to 10 nM | 10 to 100 nM
7 | CC(=O)Nc1cccc(Nc2cc(NCc3ccc(F)cc3)c(C(N)=O)cn2)c1 [Example 332, 6-(3-acetamidophenylamino)-4-(4-fluorobenzylamino)nicotinamide] | > 1000 nM | 100 to 1000 nM | 100 to 1000 nM | > 1000 nM
8 | NC(=O)c1cnc(Nc2cccc(NC(=O)N3CCCC3)c2)cc1NCc1ccccc1 [Example 326, 4-(benzylamino)-6-(3-(pyrrolidine-1-carboxamido)phenylamino)nicotinamide] | 100 to 1000 nM | 100 to 1000 nM | 1 to 10 nM | 10 to 100 nM
9 | CC(=O)Nc1cccc(Nc2cc(NCC3CC3)c(C(N)=O)cn2)c1 [Example 329, 6-(3-acetamidophenylamino)-4-(cyclopropylmethylamino)nicotinamide] | > 1000 nM | 100 to 1000 nM | 100 to 1000 nM | 100 to 1000 nM
10 | CC(=O)Nc1cccc(Nc2ncc(C(N)=O)c(Nc3cccc4nsnc34)n2)c1 [Example 192, 2-(3-acetamidophenylamino)-4-(benzo[c][1,2,5]thiadiazo-4-ylamino)pyrimidine-5-carboxamide] | > 1000 nM | 10 to 100 nM | 1 to 10 nM | 10 to 100 nM
11 | CC(=O)Nc1cccc(Nc2cc(NCCc3ccccc3)c(C(N)=O)cn2)c1 [Example 338, 6-(3-acetamidophenylamino)-4-(phenethylamino)nicotinamide] | > 1000 nM | > 1000 nM | 100 to 1000 nM | 100 to 1000 nM
12 | CC(=O)Nc1cccc(Nc2cc(NCCC(C)C)c(C(N)=O)cn2)c1 [Example 327, 6-(3-acetamidophenylamino)-4-(isopentylamino)nicotinamide] | 100 to 1000 nM | 100 to 1000 nM | 10 to 100 nM | 10 to 100 nM
13 | C[C@@H](Nc1nc(Nc2cccc(NC(=O)[C@@H]3CCCO3)c2)ncc1C(N)=O)c1ccccc1 [Example 207, 4-((R)-1-phenylethylamino)-2-(3-((S)-tetrahydrofuran-2-carboxamido)phenylamino)pyrimidine-5-carboxamide] | 100 to 1000 nM | 10 to 100 nM | 1 to 10 nM | 10 to 100 nM
14 | CN(C(=O)N1CCCC1)c1cccc(Nc2ncc(C(N)=O)c(NCc3ccccc3)n2)c1 [Example 141, 4-(benzylamino)-2-(3-(N-methylpyrrolidine-1-carboxamido)phenylamino)pyrimidine-5-carboxamide] | 100 to 1000 nM | 10 to 100 nM | 1 to 10 nM | 100 to 1000 nM
15 | CNc1nc(Nc2cccc(NC(=O)N3CCCC3)c2)ncc1C(N)=O [Example 133, 4-(methylamino)-2-(3-(pyrrolidine-1-carboxamido)phenylamino)pyrimidine-5-carboxamide] | 100 to 1000 nM | 100 to 1000 nM | 10 to 100 nM | 10 to 100 nM
16 | CC(=O)Nc1cccc(Nc2cc(NCc3cccc(Cl)c3)c(C(N)=O)cn2)c1 [Example 337, 6-(3-acetamidophenylamino)-4-(3-chlorobenzylamino)nicotinamide] | 100 to 1000 nM | 100 to 1000 nM | 10 to 100 nM | 100 to 1000 nM

Next, values leading:

Row | IC50 (JAK1) | IC50 (JAK2) | IC50 (JAK3) | IC50 (TYK2) | Structure (SMILES)
17 | 10 to 100 nM | 1 to 10 nM | 1 to 10 nM | 1 to 10 nM | CC(=O)Nc1cc(Nc2ncc(C(N)=O)c(Nc3cccc4nsnc34)n2)ccc1OCCCN1CCCCC1 [Example 243]
18 | 10 to 100 nM | 10 to 100 nM | 1 to 10 nM | 1 to 10 nM | CCn1ccc2c(Nc3nc(Nc4cccc(NC(C)=O)c4)ncc3C(N)=O)cccc21 [Example 185, 2-(3-acetamidophenylamino)-4-(1-ethyl-1H-indol-4-ylamino)pyrimidine-5-carboxamide]
19 | 100 to 1000 nM | 10 to 100 nM | 10 to 100 nM | 100 to 1000 nM | CC(=O)Nc1cc(Nc2ncc(C(N)=O)c(Nc3cccc4nn(C)cc34)n2)ccc1OCCN1CCCC1 [Example 224, 2-(3-acetamido-4-(2-(pyrrolidin-1-yl)ethoxy)phenylamino)-4-(2-methyl-2H-indazol-4-ylamino)pyrimidine-5-carboxamide]
20 | 100 to 1000 nM | 10 to 100 nM | 10 to 100 nM | 10 to 100 nM | CNC(=O)Nc1cc(Nc2ncc(C(N)=O)c(NCC3CC3)n2)ccc1Cl [Example 178, 2-(4-chloro-3-(3-methylureido)phenylamino)-4-(cyclopropylmethylamino)pyrimidine-5-carboxamide]
21 | 100 to 1000 nM | 10 to 100 nM | 1 to 10 nM | 10 to 100 nM | C[C@@H]1CCCN1C(=O)Nc1cccc(Nc2ncc(C(N)=O)c(N[C@H](C)c3ccccc3)n2)c1 [Example 148, 2-(3-((R)-2-methylpyrrolidine-1-carboxamido)phenylamino)-4-((R)-1-phenylethylamino)pyrimidine-5-carboxamide]
22 | 10 to 100 nM | 1 to 10 nM | 1 to 10 nM | 1 to 10 nM | NC(=O)c1cnc(Nc2cccc(NC(=O)N3CCOCC3)c2)nc1NCc1cccc(F)c1 [Example 259]
23 | 10 to 100 nM | 1 to 10 nM | < 1 nM | 1 to 10 nM | N#CCC(=O)Nc1cccc(Nc2ncc(C(N)=O)c(NCc3cccc(F)c3)n2)c1 [Example 257, 2-(3-(2-cyanoacetamido)phenylamino)-4-(3-fluorobenzylamino)-pyrimidine-5-carboxamide]
24 | 10 to 100 nM | 10 to 100 nM | 1 to 10 nM | 1 to 10 nM | CC(=O)Nc1cccc(Nc2ncc(C(N)=O)c(N[C@@H]3CCc4ccccc43)n2)c1 [Example 97, (R)-2-(3-acetamidophenylamino)-4-(2,3-dihydro-1H-inden-1-ylamino)pyrimidine-5-carboxamide]
25 | 10 to 100 nM | 10 to 100 nM | 1 to 10 nM | 10 to 100 nM | COCC(=O)N(c1cccc(Nc2ncc(C(N)=O)c(N[C@H](C)c3ccccc3)n2)c1)C1CC1 [Example 162, (R)-2-(3-(N-cyclopropyl-2-methoxyacetamido)phenylamino)-4-(1-phenylethylamino)pyrimidine-5-carboxamide]
26 | 1 to 10 nM | 1 to 10 nM | < 1 nM | < 1 nM | CC(=O)Nc1cccc(Nc2ncc(C(N)=O)c(N[C@H](C)C(C)C)n2)c1 [Example 252, (R)-2-(3-acetamidophenylamino)-4-(3-methylbutan-2-ylamino)pyrimidine-5-carboxamide]
27 | 10 to 100 nM | 10 to 100 nM | 1 to 10 nM | 10 to 100 nM | CC(=O)Nc1cccc(Nc2ncc(C(N)=O)c(NCC3CCCN(S(C)(=O)=O)C3)n2)c1 (centres unmarked) [Example 120, 2-(3-acetamidophenylamino)-4-((1-(methylsulfonyl)piperidin-3-yl)methylamino)pyrimidine-5-carboxamide]
28 | 10 to 100 nM | 10 to 100 nM | 10 to 100 nM | 10 to 100 nM | CC(=O)Nc1cccc(Nc2ncc(C(N)=O)c(N[C@H]3CCc4ccccc43)n2)c1 [Example 96, (S)-2-(3-acetamidophenylamino)-4-(2,3-dihydro-1H-inden-1-ylamino)pyrimidine-5-carboxamide]
29 | 10 to 100 nM | 100 to 1000 nM | 1 to 10 nM | 10 to 100 nM | CCC(C)CNc1nc(Nc2ccc(Cl)c(NC(=O)N3CCCC3)c2)ncc1C(N)=O (centres unmarked) [Example 250]
